Experimental data reported in patent US20180256460A1, “STAIN-REMOVING ORAL COMPOSITION” (LOTTE CO., LTD., priority 2014, published 2018).
Entries after “also recorded” stand apart in the source; their conditions may differ.

Assays:
[1] = Stain-removing effect of saliva solutions containing chewing gum components, color difference of stained hydroxyapatite discs; details: for Stain-removing effect of the acidulant itself: color difference: 0.1% in saliva solution, pH 6, compared to the saliva alone (pH 7), FIG. 3A, n=5, p<0.05
Protocol: Each research volunteer was asked to masticate one tablet of salivary gum (Morita Corporation), and about 30 ml of the saliva was collected respectively. The collected saliva was all combined in one container (beaker) so that personal information could not be traced. The collected saliva was centrifuged at 2,500×g for 10 minutes, and the supernatant was used as a saliva sample for a solvent in a testing solution.
The amount of the saliva collected when masticating 2 tablets of gum for 5 minutes was 15 ml on average. The sugar alcohol or acidulant was dissolved under stirring in a weight ratio corresponding to 2 tablets of the sample chewing gum into 15 ml of the saliva sample processed with the procedure of 2. That is, to 15 ml of a saliva sample, 2.31 g (15.4%) of the sugar alcohol or 15 mg (0.1%) of the acidulant was added and dissolved. Sodium metaphosphate was dissolved under stirring in an amount needed for each testing. For pH adjustment, an aqueous solution of hydrochloric acid or sodium hydroxide was used.
3% green tea extract, 1% black tea extract, and 1% instant coffee were dissolved under stirring in mineral water at 100° C. to obtain a staining liquid (instant coffee; Ajinomoto General Foods, Inc., mineral water; Suntory Foods Limited).
Hydroxyapatite discs (10 mm×10 mm, APP-100, HOYA Corporation) the surfaces of which were uniformly polished with a P400 waterproof abrasive paper were used as human enamel models. The hydroxyapatite discs after polishing were subjected to color measurement by the method of 6. as mentioned below to obtain reference values for the discs. The hydroxyapatite discs were separately put in a 12-well plate (IWAKI&Co., Ltd.) and immersed in 2.5 ml of the saliva sample and allowed to stand still at 37° C. for 2 hours so that saliva pellicles were formed on the surface. The discs were washed with water, and immersed in 2.5 ml of the staining liquid each added in each well of a fresh 12-well plate, and moderately shook at 37° C. for 24 hours so that stains were formed. The hydroxyapatite discs after staining were subjected to color measurement by the method in 6. mentioned below to obtain measurement values after staining. Hydroxyapatite discs after staining subjected to color measurement were placed in a fresh 12-well plate, and 2.5 ml of the saliva sample, the saliva solution containing chewing gum components, or the chewing gum extract solution was dispensed in each well, then the discs were immersed for 5 minutes or 35 minutes. The immersed discs were washed with distilled water, and extra water was wiped off with paper to dry the discs, followed by color measurement.
A spectrophotometer (CM-700d, Konica Minolta, Inc.) was set upright so that the colorimetric direction was upward. Hydroxyapatite discs before the pellicle formation, after staining or after the solution treatment were allowed to stand still above the colorimetric light source, and color measurements were performed 3 times successively, and the average value was employed. Color measurements were performed on the L*axis (lightness), the a*axis (chroma: red-green axis), and the b*axis (chroma: yellow-blue axis) of the L*a*b*color space based on JIS Z 8722:2009, under the condition of SCI including reflected light. […] E*ab was calculated according to the following expressions. […]

[2] = aqueous system; cited from earlier work

Molecule: O=C(O)CC(O)(CC(=O)O)C(=O)O [citric acid]
- Stain-removing effect of the acidulant itself: color difference [1]: a decrease in the color difference was observed

Molecule: O=P(=O)O [metaphosphoric acid]
- pKa [2]: as small as not measurable in an aqueous system

Molecule: sodium metaphosphate
- Stain-removing effect: color difference of stained hydroxyapatite discs ([1]; 0.066% or 0.2% in the saliva, compared to the saliva alone, FIG. 1, n=6, p<0.05): a significant difference was observed compared to the case where the discs were treated with the saliva alone; also recorded: a significant decrease in the color difference was observed
- Influence of pH on stain removal: transition of the color difference ([1]; saliva with 0.1% sodium metaphosphate, pH 5 compared to pH 7, FIG. 3C, n=6, p<0.05): a significant difference in the transition of the color difference was observed

Molecule: O=C(O)CC(O)C(=O)O (centres unmarked) [malic acid]
- Stain-removing effect of the acidulant itself: color difference [1]: a decrease in the color difference was observed
